pIC50: −log10 of the molar value. Activity calls are given as the source filed them. How the calls were made is not given here.

The subject of this test is Trypanosoma brucei growth inhibition, luminescence. In words: Trypanosoma brucei growth inhibition, luminescence (AID 1159562).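 Further: parasites grew with compound for 24 h before the luminescence read.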
In the case of `O=C(CN1CCN(c2ccccn2)CC1)Nc1cc(S(=O)(=O)N2CCCCCC2)ccc1Cl`, the pIC50 is 4.60.

Turning to `CCOc1ccc(NC(=O)c2ccc(NC(=O)NC3CCCCC3)cc2)cc1`, the pIC50 is 6.30.

Regarding `c1ccc2[nH]c(-c3ccc(N4CCCC4)nc3)nc2c1`, the pIC50 was 6.00.

Regarding `CC(c1cc(Cl)cc(Cl)c1)N(C)c1ncc2c(N)nc(N)nc2n1` (centres undefined), the pIC50 is 4.49.

With `O=C(CN(Cc1ccccn1)Cc1ccccn1)NCc1ccc2c(c1)OCO2`, the pIC50 was 4.70.

Regarding `O=c1oc2ccccc2n1C1CCN(Cc2ccccc2-c2cccnc2)CC1`, the IC50 is > 40 µM (inactive).

Turning to `C=CCOCC1Cn2nc([N+](=O)[O-])nc2O1` (centres undefined), the IC50 is > 40 µM (inactive).

As for `Cc1nn(-c2nc3ccccc3s2)c2c1C(c1ccc(OCC(N)=O)cc1)SCC(=O)N2` (centres undefined), the pIC50 was 7.49.

On to `O=c1[nH]cnc2c([C@@H]3O[C@H](CO)[C@@H](O)[C@H]3O)[nH]nc12`, for which the pIC50 was 8.30.

`N#Cc1cc([N+](=O)[O-])ccc1NC1CCCCCC1`: the pIC50 was 5.49.

In the case of `CCc1c(C)nc(-n2nc(C)cc2NC(=O)COc2ccccc2F)[nH]c1=O`, the pIC50 is 6.70.

As for `O=C(NCc1nnc2n1CCCCC2)c1ccc(-c2ccc(F)cc2)o1`, the pIC50 is 6.60.

Turning to `O=c1[nH]ccc2ccc(-c3ccncc3)cc12`, the IC50 was > 40 µM (inactive).

In the case of `Cc1nc2c(-c3cccs3)c(C)nn2c(NCCO)c1C`, the pIC50 is 6.70.

As for `COc1cc(C(C)C)c(S(C)(=O)=O)cc1C(=O)N1CCN(c2ccccc2Cl)CC1`, the pIC50 was 4.49.

In the case of `Cc1c(C(=O)NCCCCn2ccnc2)oc2c(C)cccc12`, the IC50 was > 40 µM (inactive).

Consider `CCc1ccc2nc(NC(=O)c3cc(N4CCOCC4)ccn3)sc2c1`, for which the pIC50 is 6.00.

As to `Cc1occc1C(=O)Nc1ccccc1C(=O)Nc1nccs1`, the pIC50 was 6.30.

As to `CN(Cc1nnnn1C1CCN(Cc2ccc(-n3ccnc3)cc2)CC1)c1ccc(F)cc1F`, the IC50 was > 40 µM (inactive).

Regarding `N#Cc1cccc(CN2CCC(N(Cc3cccnc3)C(=O)c3cc(F)c(F)cc3F)CC2)c1`, the IC50 was > 40 µM (inactive).

Consider `O=C(Nc1ccc(Br)cn1)c1ccc(Cn2cnc([N+](=O)[O-])n2)cc1`, for which the pIC50 is 5.49.

With `O=C1CN(Cc2ccco2)C2CS(=O)(=O)CC2N1c1ccc(Cl)cc1` (centres undefined), the pIC50 is 6.60.

`Cc1cnc(Nc2cc(Cc3ccccc3)nc(NC3CCC(O)CC3)n2)s1` (centres undefined): the pIC50 is 7.40.

On to `O=C(CCCNC(=O)c1ccc(Cl)cc1)Nc1nc(-c2ccccn2)cs1`, for which the pIC50 is 4.89.

Turning to `COCCn1c(-c2ccc3c(c2)OCO3)cnc1NCc1ccccc1OC`, the pIC50 is 4.60.

As to `COc1cc(Cl)c(C)cc1NC(=O)c1ccc([N+](=O)[O-])s1`, the pIC50 was 5.00.

Regarding `Cc1ccc2onc(Nc3ccnc(Nc4cccc(S(C)(=O)=O)c4)n3)c2c1`, the pIC50 was 5.10.

For the compound `Cc1c(Nc2cc(C3CC3)[nH]n2)ccc(C#N)c1Cl`, the pIC50 was 6.20.

In the case of `CCCc1cc(C(=O)Nc2ncc(-c3cccc(Br)c3)n2C)n[nH]1`, the pIC50 is 5.89.

Consider `CN(CC1CCCO1)S(=O)(=O)c1ccc(C(=O)Nc2nc(-c3ccccn3)cs2)cc1` (centres undefined), for which the pIC50 is 6.20.

Turning to `CC1=C(C(=O)Nc2ccc(Cl)cc2)C(c2ccncc2)n2ncc(C(=O)Nc3ccccc3)c2N1` (centres undefined), the IC50 is > 40 µM (inactive).

Take `O=C(c1ccccc1)N1CCC(C(=O)N2CCC(Oc3ccccc3Cl)CC2)CC1`: the pIC50 was 6.00.

`CN(Cc1cc2ccccc2s1)c1ncc2c(N)nc(N)nc2n1`: the pIC50 was 4.60.

On to `CCN(CC)c1nc(N(C)C)nc2c1CN(Cc1ccccc1)CC2`, for which the pIC50 was 4.70.

Turning to `O=C(Cn1cnc([N+](=O)[O-])n1)Nc1ccc(Cl)cc1C(=O)c1ccccc1`, the pIC50 is 4.49.

Turning to `COc1cccc(C(=O)[C@H]2C[C@@H]2CN(Cc2cccnc2)Cc2cccnc2)c1`, the IC50 is > 40 µM (inactive).

`OC[C@@H](Nc1nccc(-c2c(-c3ccc(F)cc3)ncn2C2CCNCC2)n1)c1ccccc1`: the pIC50 is 6.20.

With `Cc1ncsc1CNc1cnc(-c2ccc3c(c2)OCCO3)c(-c2cnn(C)c2)c1`, the pIC50 is 6.70.

On to `Cc1c(C(C)NC(=O)Nc2cccc(Cl)c2)sc2ncnn12` (centres undefined), for which the IC50 is > 40 µM (inactive).

Take `COc1ccc(C2CC(c3ccccc3Cl)=NN2C(=O)CNC(=O)C2CCC2)cc1` (centres undefined): the pIC50 is 6.30.

Regarding `N#Cc1ccccc1S(=O)(=O)N1CCN(C(=O)CNC(=O)c2ccc3c(c2)OCO3)CC1`, the IC50 was > 40 µM (inactive).

Take `Nc1nc(-c2ccccc2)cc(-c2nc3ncccc3[nH]2)n1`: the negative-log IC50 (pIC50) is 4.80.

For the compound `COc1cc(-c2noc(CC#N)n2)ccc1OC(F)F`, the pIC50 is 6.20.

`CN(C)S(=O)(=O)c1ccc(Cl)c(C(=O)Nc2nc(-c3ccccn3)cs2)c1`: the pIC50 is 6.40.

Take `Cc1[nH]n2c(=O)c3c(nc2c1-c1ccc(F)cc1)CCCC3`: the pIC50 was 6.20.

In the case of `CCN(CC)S(=O)(=O)c1ccc(OC)c(NC(=O)c2ccc([N+](=O)[O-])s2)c1`, the negative-log IC50 (pIC50) was 6.20.

Turning to `N#Cc1cccc(Nc2nccc(N3CCC(NS(=O)(=O)c4cccc(C#N)c4)CC3)n2)c1`, the pIC50 was 5.20.

For `Cc1cccnc1NC(=O)c1cccc(OCc2c(C)noc2C)c1`, the pIC50 is 6.10.

For `CC(C)N(C(=O)CN1C(=O)C(N)C(=O)N(c2ccccc2)c2ccccc21)c1ccccc1` (centres undefined), the IC50 is > 40 µM (inactive).

For `COc1ccc(C2=NCC(CSc3nnc(-c4ccc5c(c4)OCO5)o3)S2)cc1` (centres undefined), the IC50 was > 40 µM (inactive).

As for `CCc1cccc(-n2nc(OCC(=O)NC3CCCC3)c3cccnc32)c1`, the IC50 was > 40 µM (inactive).

In the case of `Cc1ccccc1CNC(=O)CN(Cc1ccccn1)Cc1ccccn1`, the pIC50 is 4.70.

Regarding `NC(=O)c1cc(F)ccc1Nc1nc(NC2CCC(O)CC2)ncc1Br` (centres undefined), the pIC50 is 6.49.

Consider `O=C(CCCn1cnc([N+](=O)[O-])n1)Nc1cccc(Cl)c1`, for which the IC50 was > 40 µM (inactive).

`c1ccc(Nc2nc3ccccc3[nH]2)nc1`: the pIC50 is 4.60.

With `Cc1nc(-c2ccncc2)ncc1C(C)NC(=O)c1ccc(Cl)s1` (centres undefined), the pIC50 is 6.00.

Regarding `Cc1ccc(NC(=O)C(C)n2nc([N+](=O)[O-])c(Br)c2C)cc1Cl` (centres undefined), the IC50 is > 40 µM (inactive).

Take `CNc1cncc(C2CCCN2C(=O)Cc2ccc3ccccc3c2)n1` (centres undefined): the IC50 was > 40 µM (inactive).

On to `CN(C)Cc1ccc(-c2ccc(S(=O)(=O)NCC3CCCO3)c(F)c2)cc1` (centres undefined), for which the pIC50 was 4.40.

`CCN(Cc1ccncc1)Cc1ccc(NC(=O)c2cc(-c3ccc(F)cc3)n[nH]2)cc1`: the IC50 was > 40 µM (inactive).

Consider `CCS(=O)(=O)Nc1ccc(C2=NN(C(=O)c3cccs3)C(c3ccccc3OC)C2)cc1` (centres undefined), for which the pIC50 is 4.80.

For `CC(C)Nc1nc(Cl)nc2ccccc12`, the pIC50 is 4.89.

`CCOc1ccc(OCC(=O)N2c3ccccc3CC2C(=O)NC)cc1` (centres undefined): the pIC50 was 6.10.

`O=C(NC1C(=O)N(c2ccccc2)C1c1cccnc1)c1ccc(Cl)s1` (centres undefined): the IC50 is > 40 µM (inactive).

For the compound `CC(=O)Nc1ccc(-c2csc(NC(=O)c3ccc([N+](=O)[O-])s3)n2)cc1`, the pIC50 is 6.80.

Consider `C=CCN(Cc1cccs1)C(=O)CSc1nnc(-c2ccc3c(c2)OCO3)o1`, for which the negative logarithm of the IC50 (pIC50) is 4.40.

Turning to `O=C(C1CCCCC1)N1CCN(c2nnc(-c3ccccc3)c3ccccc23)CC1`, the IC50 was > 40 µM (inactive).

As for `Cc1[nH]n2c(=O)c3c(nc2c1-c1ccc(Cl)cc1)CCCC3`, the pIC50 is 6.49.

In the case of `COc1cccc(Nc2cc(C)nc(-c3ccccn3)n2)c1`, the IC50 was > 40 µM (inactive).

Consider `CS(=O)(=O)c1ccc(Nc2nccc(-c3cnn4ncccc34)n2)cc1`, for which the pIC50 is 6.70.

In the case of `CC(C)CC(=O)NC(c1cccs1)c1ccc2cccnc2c1O` (centres undefined), the pIC50 is 6.20.

On to `N#Cc1cccc(CNc2ccc(-c3cnn(CC4CC4)c(=O)c3C#N)cc2)c1`, for which the pIC50 is 4.89.

As to `CC(C)(C)C(O)(CCc1ccc(Cl)cc1)Cn1cncn1` (centres undefined), the IC50 is > 40 µM (inactive).

For `CC(C)c1nn(-c2nc(N)nc(-c3ccccn3)n2)c(N)c1C1CCCCC1`, the pIC50 was 5.10.

Turning to `COc1ccc(S(=O)(=O)NC(C)C)cc1Nc1ncc(-c2cccc(F)c2)cn1`, the IC50 is > 40 µM (inactive).

With `CC(C)S(=O)(=O)c1ccc(-c2cnc(N)c3cc(-c4ccnc(N)n4)ccc23)cc1`, the negative-log IC50 (pIC50) is 6.60.

Consider `NC(=O)c1ncc(N[C@@H]2CCCNC2)nc1Nc1cccc(Cl)c1`, for which the pIC50 was 6.70.

With `CNC(=O)C1Cc2ccccc2N1C(=O)Cc1ccc(F)cc1` (centres undefined), the pIC50 is 6.60.

Turning to `Cc1cc(C)c(C#N)c(SCC(=O)c2ccc3c(c2)OCO3)n1`, the pIC50 was 4.80.

For `Cc1ccc(-c2csc(NC(=O)C=Cc3ccc(S(=O)(=O)N4CCOCC4)cc3)n2)o1`, the pIC50 is 5.30.

As for `CC1CCCCN1C(=O)NCCc1coc(-c2ccc(F)cc2)n1` (centres undefined), the pIC50 was 6.80.

Regarding `Cc1cc(C)n(-c2nc(NC(C)C)nc(NC(C)(C)C)n2)n1`, the pIC50 was 4.89.

Regarding `Cc1[nH]nc(-c2nc3ccccc3[nH]2)c1C(=O)NC1CCCNC1` (centres undefined), the negative logarithm of the IC50 (pIC50) was 6.30.

For `Fc1ccc(OC2CC(NCc3cccc4cn[nH]c34)C2)cc1C(F)(F)F` (centres undefined), the pIC50 is 5.00.

In the case of `Cc1ccnc(NS(=O)(=O)c2ccc(NC(=O)c3ccc([N+](=O)[O-])s3)cc2)n1`, the pIC50 was 6.40.

Regarding `O=c1cc(NCCCNC2CCOc3c(I)cc(Cl)cc32)[nH]c2ccccc12` (centres undefined), the pIC50 is 7.70.

In the case of `CC(=O)Nc1ccc(-c2cnc(N)c(-c3nc4ccc(F)cc4[nH]3)c2)cc1`, the pIC50 was 5.70.

Consider `COc1ccc(-c2cnc(NC(=O)c3cc(-c4ccccn4)n[nH]3)n2C)cc1`, for which the pIC50 was 5.00.

As for `COc1ccc([N+](=O)[O-])cc1NC(=O)Nc1cccc(Cl)c1`, the pIC50 is 4.70.

As for `COc1ccc(NS(=O)(=O)c2cc(NC(=O)c3ccc([N+](=O)[O-])s3)ccc2OC)cc1`, the pIC50 was 6.89.

For `Cn1nc(C(=O)N2CCc3ccccc32)c2c1CCS(=O)(=O)C2`, the pIC50 is 5.20.

Take `N#Cc1ccc(S(=O)(=O)N2CCN(Cc3cccc(-c4ccncc4)c3)CC2)cc1`: the pIC50 is 4.70.

Regarding `CCN(C)Cc1ccc(N2CCC(NS(=O)(=O)c3ccc4c(c3)CCO4)CC2)nc1`, the pIC50 was 4.40.

As for `CCC(CC)C(=O)Nc1cccc(C(=O)Nc2nnc(C3CCCCC3)s2)c1`, the negative logarithm of the IC50 (pIC50) was 6.20.

The values above are taken from PubChem BioAssay AID1159562 (GlaxoSmithKline (GSK), 2015).
